Assays:
[1] = species: Homo sapiens; assay: Selectivity index, ratio of IC50 for human HDAC4 to IC50 for human HDAC6
[2] = species: Homo sapiens; assay: Selectivity index, ratio of IC50 for human HDAC9 to IC50 for human HDAC6
[3] = biological target: T1, Protein deacetylase HDAC6 (Homo sapiens, UniProt Q9UBN7); assay: Inhibition of human HDAC6 after 15 mins by trypsin-coupled fluorescence assay
T1 sequence (Q9UBN7 whole entry): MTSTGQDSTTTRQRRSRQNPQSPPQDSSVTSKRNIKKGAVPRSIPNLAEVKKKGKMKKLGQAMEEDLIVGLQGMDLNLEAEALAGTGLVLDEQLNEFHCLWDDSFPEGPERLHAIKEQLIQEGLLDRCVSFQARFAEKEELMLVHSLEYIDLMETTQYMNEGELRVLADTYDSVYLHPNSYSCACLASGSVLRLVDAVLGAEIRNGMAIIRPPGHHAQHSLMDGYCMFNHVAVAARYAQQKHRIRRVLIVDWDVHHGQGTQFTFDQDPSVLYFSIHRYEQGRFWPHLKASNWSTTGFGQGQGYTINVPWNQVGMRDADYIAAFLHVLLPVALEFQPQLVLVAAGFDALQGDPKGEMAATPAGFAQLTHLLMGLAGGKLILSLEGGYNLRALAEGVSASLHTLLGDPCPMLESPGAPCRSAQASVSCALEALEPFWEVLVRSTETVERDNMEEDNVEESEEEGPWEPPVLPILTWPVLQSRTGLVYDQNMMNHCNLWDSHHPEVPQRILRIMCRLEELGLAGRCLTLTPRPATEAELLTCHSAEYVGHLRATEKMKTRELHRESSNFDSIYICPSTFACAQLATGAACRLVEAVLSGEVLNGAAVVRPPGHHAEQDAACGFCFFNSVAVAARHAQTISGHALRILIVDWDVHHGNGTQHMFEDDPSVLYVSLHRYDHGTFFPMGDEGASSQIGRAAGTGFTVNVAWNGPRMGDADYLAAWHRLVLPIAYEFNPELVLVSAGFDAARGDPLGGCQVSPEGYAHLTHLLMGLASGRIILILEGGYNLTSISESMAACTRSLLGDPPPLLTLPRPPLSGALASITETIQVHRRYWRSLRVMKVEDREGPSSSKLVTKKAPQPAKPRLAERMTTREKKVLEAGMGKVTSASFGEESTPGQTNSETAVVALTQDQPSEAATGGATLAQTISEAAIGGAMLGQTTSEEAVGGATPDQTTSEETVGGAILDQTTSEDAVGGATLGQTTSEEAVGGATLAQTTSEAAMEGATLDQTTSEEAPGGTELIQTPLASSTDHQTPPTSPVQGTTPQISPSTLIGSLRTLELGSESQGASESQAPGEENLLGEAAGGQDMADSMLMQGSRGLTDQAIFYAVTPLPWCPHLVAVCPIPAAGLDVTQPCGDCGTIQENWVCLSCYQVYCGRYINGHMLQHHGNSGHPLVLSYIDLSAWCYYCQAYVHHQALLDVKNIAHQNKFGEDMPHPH

[4] = biological target: T2, Polyamine deacetylase HDAC10 (Homo sapiens, UniProt Q969S8); assay: Inhibition of human HDAC10 after 15 mins by trypsin-coupled fluorescence assay
T2 sequence (Q969S8 whole entry): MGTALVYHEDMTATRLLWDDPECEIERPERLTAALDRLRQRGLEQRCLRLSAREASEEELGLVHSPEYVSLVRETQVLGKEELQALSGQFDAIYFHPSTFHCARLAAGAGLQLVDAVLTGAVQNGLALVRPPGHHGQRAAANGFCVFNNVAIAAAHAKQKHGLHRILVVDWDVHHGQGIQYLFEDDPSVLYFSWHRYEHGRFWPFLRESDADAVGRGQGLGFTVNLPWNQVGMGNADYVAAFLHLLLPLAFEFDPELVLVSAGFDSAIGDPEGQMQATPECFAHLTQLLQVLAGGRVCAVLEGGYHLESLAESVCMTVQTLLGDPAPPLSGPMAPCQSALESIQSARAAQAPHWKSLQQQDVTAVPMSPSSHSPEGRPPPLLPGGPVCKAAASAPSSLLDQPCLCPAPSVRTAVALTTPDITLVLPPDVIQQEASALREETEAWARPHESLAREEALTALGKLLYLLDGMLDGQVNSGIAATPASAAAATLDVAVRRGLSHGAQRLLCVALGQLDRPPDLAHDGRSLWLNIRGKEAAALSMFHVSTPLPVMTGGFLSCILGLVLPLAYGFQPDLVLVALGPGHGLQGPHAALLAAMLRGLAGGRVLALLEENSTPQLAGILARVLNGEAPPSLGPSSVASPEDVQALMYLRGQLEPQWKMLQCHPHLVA

Ratio IC50 [1]: 15 to 400
Ratio IC50 [2]: 15 to 400
IC50 [3]: 25 nM
IC50 [4]: 700 nM
SMILES: O=C(NO)c1ccc(CN(CCO)C(=O)Cc2ccccc2)cc1
